Experimental data from a melting point compilation (Tetko et al.; mined from patent text by program, amines drawn as free bases though some values may be those of a salt).

| melting point | SMILES |
| --- | --- |
| 152 to 154 °C | COc1cc(C(=O)Nc2ccc(N3CCCC3)cc2C(C)=O)ccc1OCc1ccccc1 |
| 197 to 199 °C | CN(Cc1ccccc1)Cc1c(-c2ccc([N+](=O)[O-])cc2)sc2c1c(=O)c(C(=O)c1ccccc1)cn2Cc1c(F)cccc1F |
| 210 to 211 °C | O=C(Cc1ccccc1C(=O)O)Nc1cccc(/C=C/c2nc(C3CCCCC3)cs2)c1 |
| 243 to 245 °C | O=c1[nH]cc(Oc2ccccc2)cc1-c1csc(-c2ccncc2)n1 |
| 131 to 132 °C | COC(=O)C(Cc1ccccc1)NC(=S)Nc1nc(C)cs1 (racemic) |
| 76 to 80 °C | CCCCS(=O)(=O)Nc1ccc(C(=O)c2ccccc2)cc1 |
| 209 °C | Cc1ccc(-c2ccc(C(=O)Nc3ccc4cc(CN5CCCCCC5)cnc4c3)cc2)cc1 |
| 177 to 179 °C | N#Cc1ccccc1S(=O)(=O)c1ccc(N)cc1 |
| > 285 °C | O=C(O)c1ccc(NC(=O)c2ccccc2SSc2ccccc2C(=O)Nc2ccc(C(=O)O)cc2)cc1 |
| 249 to 250 °C | COc1ccc(C(=O)Nc2c(Cl)cncc2Cl)c2c3cc(Cl)ccc3n(Cc3ccc(F)cc3)c12 |
| 180 °C | CC(Cc1nc(-c2ccccc2)nc2ccccc12)C(=O)O (centres undefined) |
| 119 to 120 °C | Cc1cc(-c2ccc(S(N)(=O)=O)cc2)n(-c2ccc(F)cc2)c1Cl |
| 79 to 82 °C | CCCCOc1ccc(OCc2ccccc2)c(C(=O)O)c1 |
| 153 to 156 °C | O=C(O)COc1ccc(C(=O)c2ccccc2F)c(Cl)c1Cl |
| 70 to 80 °C | COC(=O)C1=C(C)NC(C)=C(C(=O)NCCCN2CCN(c3ccccc3OC)CC2)C1c1cccc([N+](=O)[O-])c1 (centres undefined) |
| 333 to 337 °C | CN1CCN(c2nc(-c3ccccc3)nc3nc(-c4ccncc4)[nH]c23)CC1 |
| 192 °C | Cc1cccc(NC(=O)NC(CC(N)=O)C(=O)N(CC(=O)OC(C)(C)C)c2ccccc2)c1 (racemic) |
| 167 to 168 °C | CC(C)(C(=O)NCCn1ccc2ncnc(Nc3ccc(Oc4cccc(C(F)(F)F)c4)c(Cl)c3)c21)S(C)(=O)=O |
| 79 to 81 °C | CN(C)c1c(-c2ccccc2)sc2ccc(Cl)cc12 |

| melting point | SMILES |
| --- | --- |
| 160 to 162 °C | COc1cccc(NC(=O)N(C)Cc2cccc3c2C(=O)N(C2CCC(=O)NC2=O)C3=O)c1 (centres undefined) |
| 101 to 115 °C | COC(=O)c1cccc(-c2ccccc2)c1S(C)(=O)=O |
| 70 °C | CCCCCCCCCCC(C(=O)CCCCO)P(=O)(c1ccccc1)c1ccccc1 (centres undefined) |
| 162 °C | O=C(c1ccc(Cl)cc1)C(Oc1cccc(Cl)n1)n1cncn1 (centres undefined) |
| 126 to 127 °C | CC(C)c1ccc(C2c3cc(NC(=O)CC(C)(C)C)ccc3OC2(C)C)cc1 (centres undefined) |
| 172 to 174 °C | CCOC(=O)Cn1nc(-c2ccccc2O)nc1-c1ccccc1O |
| 106 to 107 °C | CCOC(=NC(=O)c1ccc(Cl)cc1)N1Cc2ccccc2-c2ccccc2C1 |
| 141 °C | CCN(CC)C(=O)Cc1ccccc1OC |
| 166 to 169 °C | CC1=C(CCN(O)C(N)=O)/C(=C/c2ccc(S(C)=O)cc2)c2ccccc21 (centres undefined) |
| 225 to 226 °C | FCC(F)(F)Sc1nc(-c2ccccc2)c(-c2ccccc2)[nH]1 |
| > 250 °C | Cc1cc(-c2ccc(C(F)(F)F)c(C)c2)cc(-c2cccc(-c3cccc(S(N)(=O)=O)c3)n2)n1 |
| 138 to 140 °C | CC(=O)Nc1ccc(F)cc1-c1ccc(Cl)c(Cl)c1 |
| 99 to 104 °C | COC(=O)c1ccccc1Sc1cc(C=O)ccc1OC |
| 145 to 147 °C | CN(C)CCC(Oc1ccc(NS(C)(=O)=O)cc1)c1ccccc1 (centres undefined) |
| 152 °C | CSc1nc(-c2ccc(Cl)cc2)nc(-c2ccccn2)n1 |
| 200 to 204 °C | N#CCc1c[nH]c2ccc(NC(N)=O)cc12 |
| 114 to 119 °C | O=C(Nc1cc(C(F)(F)F)ccc1N1CCc2ccccc21)c1ccccc1 |
| 214 °C | O=C(Nc1ccc(F)cc1)NN(c1ccccc1)c1ccccc1 |
| 215 to 217 °C | O=C1COc2ccc(C3=Nc4ccccc4SC3c3ccccc3)cc2N1 (centres undefined) |

More lines, now with the values behind:

| SMILES | melting point |
| --- | --- |
| CCOC(=O)c1c(-c2ccc(C(C)(C)C)cc2)n(C)n(-c2ccc(C#N)cc2)c1=O | 202 to 204 °C |
| C=CCc1cc(C2=NNC(=O)CC2)ccc1OCC1CO1 (centres undefined) | 92.5 to 95 °C |
| O=C1CS(=O)(=O)CN1c1cccc(C(F)(F)F)c1 | 115 to 117 °C |
| CC1CC(C)N(CCCNC(=O)CN2CCCC2=O)C(C)(C)C1 (centres undefined) | 85 to 87 °C |
| CCOC(=O)c1c(CSc2nccn2CC)nc2cc(OC)c(OC)cc2c1-c1ccc(OC)c(OC)c1 | 157 to 158 °C |
| CCCOc1ccc2c(c1)C(c1ccc(OC)cc1OCC(=O)O)CC2c1ccc2c(c1)OCO2 (centres undefined) | 177 to 178 °C |
| CNC1CCCN(c2c(F)cc3c(=O)c(C(=O)O)cn(C4CC4)c3c2OC)C1 (centres undefined) | 134 to 135 °C |
| CC(C)(C)Oc1nc2cc(F)c([N+](=O)[O-])cc2[nH]c1=NC#N | 161 to 164 °C |
| O=C(O)CCc1nc2c(F)c(F)cc(F)c2s1 | 123 to 125 °C |
| O=C(c1sccc1-n1cccc1)N1CCCCC1 | 126 °C |
| COC(=O)c1c(C2=CC(=O)c3cccc(O)c3C2=O)c(C)n(C)c1C | 178 to 180 °C |
| O=C(O)CCNC(=O)C(Cl)(Cl)Cl | 102 to 110 °C |
| COC(=O)C1Cc2ccccc2N1c1ncnc2cc(OC)c(OC)cc12 (centres undefined) | 186 to 190 °C |
| CC(=O)NC(NC(=O)CC(=O)OCc1ccccc1)C(=O)NCc1ccccc1 (centres undefined) | 177 to 179 °C |
| Cc1nc(C)c(I)nc1C | 59 to 63 °C |
| CCCCCNc1c(C(=O)OCC)cnc2cn[nH]c12 | 153 to 155 °C |
| CC(C)(C)OC(=O)N1CCn2c(c(C(N)=O)c(Br)c2C2CC2)C1 | 162 °C |
| NS(=O)(=O)c1ccccc1C(=O)OC1COC1 | 169 to 170 °C |
| C=CCOc1ccc(-c2ccc(Cl)nn2)c(OCC(O)CNC(C)(C)C)c1 (centres undefined) | 93 to 94 °C |
| O=S(=O)(NC1(CO)CCCC1)c1ccc2c(Cl)cnc(Cl)c2c1 | 148 to 150 °C |
| CCc1ccc(C)c(NC(=O)C(C)(C)C)n1 | 72 to 75 °C |

| SMILES | melting point |
| --- | --- |
| CC1(c2cccc(S(N)(=O)=O)c2)OCCO1 | 155 to 157 °C |
| CSc1nc(C)ccc1NC(=O)CCCCCCCCBr | 80 to 82 °C |
| COc1cc(Cc2cnc(N)nc2N)cc2c1OC(C)(C)C=C2Cl | 221 to 222 °C |
| CC1(C)CN=C(c2cnc(S(C)(=O)=O)c(Cl)c2)O1 | 102 to 105 °C |
| COc1ccc(N2CCN(Cc3n[nH]c4c(I)cccc34)CC2)cc1 | 185 to 186 °C |
| NCCc1ccc(C(N)=O)s1 | 134 to 136 °C |
| CCc1nc(-c2cccc(C#N)c2)c(-c2ccnc(N)c2)s1 | 178 to 179 °C |
| Cc1ccc2nc3n(c2c1)CCC3 | 118 to 120 °C |
| C=CCCO[C@@H](Cc1ccc(OCCc2nc(C(C)(C)C)oc2C)c2ccsc12)C(=O)O | 70 to 71 °C |
| O=C1C(Cl)=C(N2CCN(c3nc4ccccc4o3)CC2)C(=O)c2nsnc21 | 233 to 235 °C |
| CN(Cc1sc2c(=O)c(C(=O)NCc3ccc(Cl)cc3)cn(C)c2c1COCC[Si](C)(C)C)CC(O)c1cc2ccccc2o1 (centres undefined) | 157 to 159 °C |
| CC1(C)CCc2c(N3CCCC3)nc3sc4c(NCc5ccco5)ncnc4c3c2C1 | 201 to 202 °C |
| COc1cc2[nH]cc(C(=O)NN3CCNC3=O)c(=O)c2cc1OC | > 300 °C |
| CC(C)P1(=O)c2ccccc2CN1c1ccccc1 (centres undefined) | 145 to 147 °C |
| CC(C)(C)OC(=O)NNCCC12CC3CC(CC(C3)C1)C2 | 73.5 to 81 °C |
| CCOC(=O)C(C#N)C1CC(C)(C)NC(C)(C)C1 (centres undefined) | 116 to 117 °C |
| CCCCC1(CCCC)CCc2c(OCc3ccccn3)cccc2C1O (centres undefined) | 106 to 107 °C |
| c1csc(Cn2ccnc2-c2ncc[nH]2)c1 | 153 to 155 °C |
| CCC(=O)NS(=O)(=O)c1cccc(-c2cc(-c3nc(-c4ccc(C(F)(F)F)nc4)cc(C(F)(F)F)n3)ccn2)c1 | 242 °C |
| Cn1ncnc1COc1nn2c(-c3ccccc3)nnc2cc1C12CCC(CC1)C2 | 244 to 246 °C |
| COCCOC(=O)c1ccc(-c2ccc(N)cc2)c(C)c1 | 72 to 75 °C |

| SMILES | melting point |
| --- | --- |
| CCOC1(CCC(=O)O)c2cc(C)c(OC(C)=O)cc2Oc2cc(OC(C)=O)c(C)cc21 | 143 °C |
| COc1ccc(-c2nc(C)c([N+](=O)[O-])[nH]2)cc1 | 198 to 204 °C |
| CC(=O)Nc1cc(NC(C)=C2C(=O)OC(=O)C(C(C)=O)=C2O)cc([N+](=O)[O-])c1 | > 270 °C |
| O=C(O)C1=Cc2cc(Cl)c(Oc3ccc(F)c(F)c3)cc2OC1C(F)(F)F (centres undefined) | 192 to 193 °C |
| c1cc2ncc3c(n2n1)N(C1CCCC1)CC3 | 181 °C |
| O=[N+]([O-])c1c(-c2cc(Cl)cc(Cl)c2)[nH]c2c(Cl)cc(Cl)cc12 | 272 to 273 °C |
| COc1c(-c2cc3c(s2)CCCC3N=[N+]=[N-])ccc2c(=O)c(C(=O)O)cn(C3CC3)c12 (centres undefined) | 134 to 136 °C |
| CCc1nc(N)nc(N)c1CCC(C)c1ccc(C(F)(F)F)cc1 (centres undefined) | 48 to 55 °C |
| c1nc2cc3c(cc2[nH]1)OCO3 | 155 to 156 °C |
| COc1cc(-c2nc(NC3CCCC3)c3c(C)c(C#N)sc3n2)cc(OC)c1OC | 218 to 220 °C |
| COc1cc2nc(N3CCN(C(=O)C4CC4)CC3)nc(N)c2cc1OC | 284 to 286 °C |
| CCOC(=O)c1nc2n(c(=O)c1O)CCOC2 | 172 to 174 °C |
| Nc1ccncc1Nc1ccc2cn[nH]c2c1 | 214 to 216 °C |
| CCCc1nn(-c2ccc(C(F)(F)F)cn2)cc1CCCOc1cc(CCC(=O)O)ccc1OC | 147 to 148 °C |
| CS(=O)(=O)c1ccc(Oc2ccc([N+](=O)[O-])c(NCCC(N)=O)c2)c(Cl)c1 | 135 °C |
| COc1cccc([C@H]2O[C@H](CC(=O)NCP(=O)(O)O)C(=O)N(CC(C)(C)C)c3ccc(Cl)cc32)c1OC | 152 to 155 °C |
| FC(F)(F)c1nc2cc(Cl)c(Cl)cc2[nH]1 | 225 to 230 °C |
| CC(C)(C)OC(=O)N1CCc2c(n(CCOc3ccccc3)c3cc(Cl)cc(Cl)c23)CC1 | 132 to 133 °C |
| Cc1c2n(c3ccccc13)C(=O)C(Cc1c[nH]cn1)CC2 (centres undefined) | 156 to 157 °C |
